Measurements taken from patent US20160250213A1, “FORMULATIONS OF AZAINDOLE COMPOUNDS” (priority 2013, published 2016).
Read-outs that look alike come from different tables or passages of the source.

Legend:
[1] = test system: Influenza A/California/04/2009 (pndH1N1) virus; type: in vivo, BALB/c mice
[2] = test system: A/FM/1/47 (H1N1); assay: microbe, parasite or virus in culture; type: cell-based; conditions: Influenza A virus, MDCK, read-out: Cell Protection Assay EC50 ± SD
[3] = test system: A/Mal/302/54 (H1N1); assay: microbe, parasite or virus in culture; type: cell-based; conditions: Influenza A virus, MDCK, read-out: Cell Protection Assay EC50 ± SD
[4] = test system: A/Florida/3/2006 (H1N1); assay: microbe, parasite or virus in culture; type: cell-based; conditions: Influenza A virus, MDCK, read-out: Cell Protection Assay EC50 ± SD
[5] = test system: A/Victoria/3/75 (H3N2); assay: microbe, parasite or virus in culture; type: cell-based; conditions: Influenza A virus, MDCK, read-out: Cell Protection Assay EC50 ± SD
[6] = test system: A/Virginia/ATCC2/2009 (H1N1); assay: microbe, parasite or virus in culture; type: cell-based; conditions: Influenza A virus, MDCK, read-out: Cell Protection Assay EC50 ± SD
[7] = test system: A/Virginia/ATCC3/2009 (H1N1); assay: microbe, parasite or virus in culture; type: cell-based; conditions: Influenza A virus, MDCK, read-out: Cell Protection Assay EC50 ± SD
[8] = test system: A/Swine/Iowa/15/30 (H1N1); assay: microbe, parasite or virus in culture; type: cell-based; conditions: Influenza A virus, H1N1, MDCK, in Sus scrofa, read-out: Cell Protection Assay EC50 ± SD
[9] = test system: B/Russia/69; assay: microbe, parasite or virus in culture; type: cell-based; conditions: Influenza B virus, MDCK, read-out: Cell Protection Assay EC50 ± SD
[10] = test system: influenza virus; parameters: species or system mice; conditions: mouse, in vivo
[11] = test system: influenza A/Wisconsin/67/2005 (H3N2) challenge strain virus; type: in vivo, humans (healthy volunteers)
[12] = test system: influenza A/Wisconsin/67/2005 (H3N2) challenge strain virus; type: in vivo, humans (healthy volunteers); conditions: for Composite Clinical Symptom, AUC, median / Influenza like Symptom, AUC, median: Day 1 through Day 7
[13] = single doses up to 1600 mg and multiple doses up to 800 mg daily for 10 days
[14] = 1 mg/kg p.o. twice a day for 10 days starting 2 hours prior to virus exposure
[15] = 3 mg/kg p.o. twice a day for 10 days starting 2 hours prior to virus exposure
[16] = 10 mg/kg p.o. twice a day for 10 days starting 2 hours prior to virus exposure
[17] = 100 mg QD 5 days, FA set N = 12
[18] = 400 mg QD 5 days, FA set N = 12
[19] = 900 mg Day 1, 600 mg Days 2-5, FA set N = 14
[20] = 1200 mg Day 1, 600 mg Days 2-5, FA set N = 14
[21] = pooled Compound (1) dose groups, FA set N = 52
[22] = 900 mg Day 1, 600 mg Days 2-5, N = 14
[23] = 1200 mg Day 1, 600 mg Days 2-5, N = 14
[24] = pooled Compound (1) dose groups, N = 52
[25] = 900 mg Day 1, 600 mg qd Days 2-5, N = 19
[26] = 1200 mg Day 1, 600 mg qd Days 2-5, N = 18
[27] = pooled Compound (1) groups, N = 72

SMILES: O=C(O)[C@H]1C2CCC(CC2)C1Nc1nc(-c2c[nH]c3ncc(F)cc23)ncc1F (some centres unmarked) [Compound (1)]
- Mean Lung Parameters (Day 6): Score (hemorrhage, 0 to 4) [1, 14]: 0.6
- Mean Lung Parameters (Day 6): Virus Titer [1, 14]: 5.5 Log10 CCID50/g
- Mean Lung Parameters (Day 6): Weight [1, 14]: 246 mg
- Mean Lung Parameters (Day 6): Score (hemorrhage, 0 to 4) [1, 15]: 0.0
- Mean Lung Parameters (Day 6): Virus Titer [1, 15]: 3.1 Log10 CCID50/g
- Mean Lung Parameters (Day 6): Weight [1, 15]: 123 mg
- Mean Lung Parameters (Day 6): Score (hemorrhage, 0 to 4) [1, 16]: 0.2
- Mean Lung Parameters (Day 6): Virus Titer [1, 16]: <2.6^d*** Log10 CCID50/g
- Mean Lung Parameters (Day 6): Weight [1, 16]: 132 mg
- EC50 [2]: 0.57 ± 0.036 nM
- EC50 [3]: 0.57 ± 0.055 nM
- EC50 [4]: 0.92 ± 1.5 nM
- EC50 [5]: 1.3 ± 0.63 nM
- EC50 [6]: 1.9 ± 3 nM
- EC50 [7]: 1.9 ± 3.2 nM
- EC50 [8]: 0.65 ± 0.082 nM
- EC50 [9]: > 10 nM
- half maximal reduction in lung titers [10]: 2-3 log
- Viral Shedding by qRT-PCR, AUC, median [11, 17]: 6.05 log10 copies/mL*Day
- Viral Shedding by qRT-PCR, Duration, median [11, 17]: 0.96 days
- Viral Shedding by qRT-PCR, AUC, median [11, 18]: 4.90 log10 copies/mL*Day
- Viral Shedding by qRT-PCR, Duration, median [11, 18]: 1.36 days
- Viral Shedding by qRT-PCR, AUC, median [11, 19]: 10.65 log10 copies/mL*Day
- Viral Shedding by qRT-PCR, Duration, median [11, 19]: 2.39 days
- Viral Shedding by qRT-PCR, AUC, median [11, 20]: 0.45 log10 copies/mL*Day
- Viral Shedding by qRT-PCR, Duration, median [11, 20]: 0.00 days
- Viral Shedding by qRT-PCR, AUC, median [11, 21]: 3.45 log10 copies/mL*Day
- Viral Shedding by qRT-PCR, Duration, median [11, 21]: 0.71 days
- Composite Clinical Symptom, Duration, median ([12]; 100 mg QD 5 days, N = 12): 3.21 days
- Composite Clinical Symptom, Peak, mean ([12]; 100 mg QD 5 days, N = 12): 3.17 Grade
- Influenza like Symptom, Duration, median ([12]; 100 mg QD 5 days, N = 12): 3.21 days
- Influenza like Symptom, Peak, mean ([12]; 100 mg QD 5 days, N = 12): 2.75 Grade
- Composite Clinical Symptom, AUC, median ([12]; 100 mg QD 5 days, N = 12): 1.85 Grade*Day
- Influenza like Symptom, AUC, median ([12]; 100 mg QD 5 days, N = 12): 1.85 Grade*Day
- Composite Clinical Symptom, Duration, median ([12]; 400 mg QD 5 days, N = 12): 3.34 days
- Composite Clinical Symptom, Peak, mean ([12]; 400 mg QD 5 days, N = 12): 2.83 Grade
- Influenza like Symptom, Duration, median ([12]; 400 mg QD 5 days, N = 12): 3.34 days
- Influenza like Symptom, Peak, mean ([12]; 400 mg QD 5 days, N = 12): 2.42 Grade
- Composite Clinical Symptom, AUC, median ([12]; 400 mg QD 5 days, N = 12): 4.70 Grade*Day
- Influenza like Symptom, AUC, median ([12]; 400 mg QD 5 days, N = 12): 3.80 Grade*Day
- Composite Clinical Symptom, Duration, median [12, 22]: 2.69 days
- Composite Clinical Symptom, Peak, mean [12, 22]: 3.71 Grade
- Influenza like Symptom, Duration, median [12, 22]: 2.69 days
- Influenza like Symptom, Peak, mean [12, 22]: 3.21 Grade
- Composite Clinical Symptom, AUC, median [12, 22]: 1.75 Grade*Day
- Influenza like Symptom, AUC, median [12, 22]: 1.75 Grade*Day
- Composite Clinical Symptom, Duration, median [12, 23]: 1.88 days
- Composite Clinical Symptom, Peak, mean [12, 23]: 1.50 Grade
- Influenza like Symptom, Duration, median [12, 23]: 1.88 days
- Influenza like Symptom, Peak, mean [12, 23]: 1.36 Grade
- Composite Clinical Symptom, AUC, median [12, 23]: 1.95 Grade*Day
- Influenza like Symptom, AUC, median [12, 23]: 1.75 Grade*Day
- Composite Clinical Symptom, Duration, median [12, 24]: 2.34 days
- Composite Clinical Symptom, Peak, mean [12, 24]: 2.79 Grade
- Influenza like Symptom, Duration, median [12, 24]: 2.34 days
- Influenza like Symptom, Peak, mean [12, 24]: 2.42 Grade
- Composite Clinical Symptom, AUC, median [12, 24]: 2.15 Grade*Day
- Influenza like Symptom, AUC, median [12, 24]: 2.05 Grade*Day
- tolerability (100 mg to 1200/600 mg QD, five daily doses): well tolerated
- Adverse event: Alanine aminotransferase increased (100 mg, N = 16): 3 (18.8) n(%)
- Adverse event: Aspartate aminotransferase increased (100 mg, N = 16): 1 (6.3) n(%)
- Adverse event: Blood phosphorus decreased (100 mg, N = 16): 3 (18.8) n(%)
- Adverse event: Dermatitis contact (100 mg, N = 16): 3 (18.8) n(%)
- Adverse event: Headache (100 mg, N = 16): 1 (6.3) n(%)
- Adverse event: Influenza-like illness (100 mg, N = 16): 8 (50.0) n(%)
- Adverse event: Malaise (100 mg, N = 16): 2 (12.5) n(%)
- Adverse event: Nasal congestion (100 mg, N = 16): 0 n(%)
- Adverse event: Nausea (100 mg, N = 16): 0 n(%)
- Adverse event: Oropharylngeal pain (100 mg, N = 16): 2 (12.5) n(%)
- Adverse event: Rhinorrhea (100 mg, N = 16): 0 n(%)
- Adverse event: Spirometry abnormal (100 mg, N = 16): 2 (12.5) n(%)
- Adverse event: Tension Headache (100 mg, N = 16): 0 n(%)
- Adverse event: Alanine aminotransferase increased (400 mg, N = 19): 1 (5.3) n(%)
- Adverse event: Aspartate aminotransferase increased (400 mg, N = 19): 1 (5.3) n(%)
- Adverse event: Blood phosphorus decreased (400 mg, N = 19): 0 n(%)
- Adverse event: Dermatitis contact (400 mg, N = 19): 0 n(%)
- Adverse event: Headache (400 mg, N = 19): 4 (21.1) n(%)
- Adverse event: Influenza-like illness (400 mg, N = 19): 10 (52.6) n(%)
- Adverse event: Malaise (400 mg, N = 19): 0 n(%)
- Adverse event: Nasal congestion (400 mg, N = 19): 0 n(%)
- Adverse event: Nausea (400 mg, N = 19): 2 (10.5) n(%)
- Adverse event: Oropharylngeal pain (400 mg, N = 19): 0 n(%)
- Adverse event: Rhinorrhea (400 mg, N = 19): 2 (10.5) n(%)
- Adverse event: Spirometry abnormal (400 mg, N = 19): 4 (21.1) n(%)
- Adverse event: Tension Headache (400 mg, N = 19): 2 (10.5) n(%)
- Adverse event: Alanine aminotransferase increased [25]: 0 n(%)
- Adverse event: Aspartate aminotransferase increased [25]: 0 n(%)
- Adverse event: Blood phosphorus decreased [25]: 6 (31.6) n(%)
- Adverse event: Dermatitis contact [25]: 0 n(%)
- Adverse event: Headache [25]: 0 n(%)
- Adverse event: Influenza-like illness [25]: 9 (47.4) n(%)
- Adverse event: Malaise [25]: 0 n(%)
- Adverse event: Nasal congestion [25]: 0 n(%)
- Adverse event: Nausea [25]: 1 (5.3) n(%)
- Adverse event: Oropharylngeal pain [25]: 1 (5.3) n(%)
- Adverse event: Rhinorrhea [25]: 0 n(%)
- Adverse event: Spirometry abnormal [25]: 0 n(%)
- Adverse event: Tension Headache [25]: 1 (5.3) n(%)
- Adverse event: Alanine aminotransferase increased [26]: 6 (33.3) n(%)
- Adverse event: Aspartate aminotransferase increased [26]: 2 (11.1) n(%)
- Adverse event: Blood phosphorus decreased [26]: 4 (22.2) n(%)
- Adverse event: Dermatitis contact [26]: 0 n(%)
- Adverse event: Headache [26]: 2 (11.1) n(%)
- Adverse event: Influenza-like illness [26]: 7 (38.9) n(%)
- Adverse event: Malaise [26]: 0 n(%)
- Adverse event: Nasal congestion [26]: 1 (5.6) n(%)
- Adverse event: Nausea [26]: 0 n(%)
- Adverse event: Oropharylngeal pain [26]: 0 n(%)
- Adverse event: Rhinorrhea [26]: 1 (5.6) n(%)
- Adverse event: Spirometry abnormal [26]: 4 (22.2) n(%)
- Adverse event: Tension Headache [26]: 0 n(%)
- incidence of decreased blood phosphorus level (Compound (1) groups): 18.1%
- incidence of nasal congestion (Compound (1) groups): 1.4%
- incidence of rhinorrhea (Compound (1) groups): 4.2%
- Adverse event: Alanine aminotransferase increased [27]: 10 (13.9) n(%)
- Adverse event: Aspartate aminotransferase increased [27]: 4 (5.6) n(%)
- Adverse event: Blood phosphorus decreased [27]: 13 (18.1) n(%)
- Adverse event: Dermatitis contact [27]: 3 (4.2) n(%)
- Adverse event: Headache [27]: 7 (9.7) n(%)
- Adverse event: Influenza-like illness [27]: 34 (47.2) n(%)
- Adverse event: Malaise [27]: 2 (2.8) n(%)
- Adverse event: Nasal congestion [27]: 1 (1.4) n(%)
- Adverse event: Nausea [27]: 3 (4.2) n(%)
- Adverse event: Oropharylngeal pain [27]: 3 (4.2) n(%)
- Adverse event: Rhinorrhea [27]: 3 (4.2) n(%)
- Adverse event: Spirometry abnormal [27]: 10 (13.9) n(%)
- Adverse event: Tension Headache [27]: 3 (4.2) n(%)
- liver function abnormalities, serum phosphate decreases [13]: Neither liver function abnormalities nor serum phosphate decreases were observed
